Results as given in article PMC5760531, “Action Potential Recording and Pro-arrhythmia Risk Analysis in Human Ventricular Trabeculae” (Frontiers in Physiology, 2018).

System: human ventricular trabeculae
Assay: Action potential recording and pro-arrhythmic score analysis in human ventricular trabeculae (hVT);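 note: sharp microelectrode action potential recordings at 37°C in Tyrode-perfused trabeculae, 4 cumulative concentrations each applied 31 min, values averaged over last 30 APs, vehicle 0.1% DMSO as control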
Details: for EADs (raw data) / Refractoriness Escape (raw data) / Beat Escape (raw data): n=4 trabeculae
[1] = 2Hz, 0.7-FOLD free ETPC (4.1µM)

SMILES: Cc1cccc(C)c1OCC(C)N (stereo not shown) [MEXILETINE, Mexiletine]
- EADs (raw data) (1Hz, 73-FOLD free ETPC (4.1µM)): 0
- Refractoriness Escape (raw data) (1Hz, 73-FOLD free ETPC (4.1µM)): 0
- AMAX (average raw data) [1]: 105
- AMAX percentage change compared to vehicle control [1]: -2%
- APD30 (average raw data) [1]: 126
- APD30 percentage change compared to vehicle control [1]: -7%
- APD50 (average raw data) [1]: 172
- APD50 percentage change compared to vehicle control [1]: -4%
- APD90 (average raw data) [1]: 257
- APD90 percentage change compared to vehicle control [1]: -1%
- Alternans (average raw data) [1]: 2.02
- Alternans percentage change compared to vehicle control [1]: 59%
- Beat Escape percentage change compared to vehicle control [1]: 50%
- EADs percentage change compared to vehicle control [1]: 0%
- ERP (average raw data) [1]: 0.45
- ERP percentage change compared to vehicle control [1]: 5%
- Max Dispersion (average raw data) [1]: 6.13
- Max Dispersion percentage change compared to vehicle control [1]: -14%
- RMP (average raw data) [1]: -88
- RMP percentage change compared to vehicle control [1]: 0%
- Refractoriness Escape percentage change compared to vehicle control [1]: 0%
- STV (average raw data) [1]: 1.38
- STV percentage change compared to vehicle control [1]: 81%
- Triangulation (average raw data) [1]: 131
- Triangulation percentage change compared to vehicle control [1]: 5%
- Beat Escape (raw data) [1]: 2
- EADs (raw data) [1]: 0
- Refractoriness Escape (raw data) [1]: 0
- AMAX (average raw data) (2Hz, 7-FOLD free ETPC (4.1µM)): 99
- AMAX percentage change compared to vehicle control (2Hz, 7-FOLD free ETPC (4.1µM)): -8%
- APD30 (average raw data) (2Hz, 7-FOLD free ETPC (4.1µM)): 128
- APD30 percentage change compared to vehicle control (2Hz, 7-FOLD free ETPC (4.1µM)): -6%
- APD50 (average raw data) (2Hz, 7-FOLD free ETPC (4.1µM)): 167
- APD50 percentage change compared to vehicle control (2Hz, 7-FOLD free ETPC (4.1µM)): -8%
- APD90 (average raw data) (2Hz, 7-FOLD free ETPC (4.1µM)): 255
- APD90 percentage change compared to vehicle control (2Hz, 7-FOLD free ETPC (4.1µM)): -2%
- Alternans (average raw data) (2Hz, 7-FOLD free ETPC (4.1µM)): 1.03
- Alternans percentage change compared to vehicle control (2Hz, 7-FOLD free ETPC (4.1µM)): -19%
- Beat Escape percentage change compared to vehicle control (2Hz, 7-FOLD free ETPC (4.1µM)): 75%
- EADs percentage change compared to vehicle control (2Hz, 7-FOLD free ETPC (4.1µM)): 0%
- ERP (average raw data) (2Hz, 7-FOLD free ETPC (4.1µM)): 0.39
- ERP percentage change compared to vehicle control (2Hz, 7-FOLD free ETPC (4.1µM)): -9%
- Max Dispersion (average raw data) (2Hz, 7-FOLD free ETPC (4.1µM)): 4.70
- Max Dispersion percentage change compared to vehicle control (2Hz, 7-FOLD free ETPC (4.1µM)): -34%
- RMP (average raw data) (2Hz, 7-FOLD free ETPC (4.1µM)): -89
- RMP percentage change compared to vehicle control (2Hz, 7-FOLD free ETPC (4.1µM)): 1%
- Refractoriness Escape percentage change compared to vehicle control (2Hz, 7-FOLD free ETPC (4.1µM)): 0%
- STV (average raw data) (2Hz, 7-FOLD free ETPC (4.1µM)): 0.76
- STV percentage change compared to vehicle control (2Hz, 7-FOLD free ETPC (4.1µM)): 3%
- Triangulation (average raw data) (2Hz, 7-FOLD free ETPC (4.1µM)): 127
- Triangulation percentage change compared to vehicle control (2Hz, 7-FOLD free ETPC (4.1µM)): 2%
- Beat Escape (raw data) (2Hz, 7-FOLD free ETPC (4.1µM)): 3
- EADs (raw data) (2Hz, 7-FOLD free ETPC (4.1µM)): 0
- Refractoriness Escape (raw data) (2Hz, 7-FOLD free ETPC (4.1µM)): 0
- AMAX (average raw data) (2Hz, 24-FOLD free ETPC (4.1µM)): 90
- AMAX percentage change compared to vehicle control (2Hz, 24-FOLD free ETPC (4.1µM)): -16%
- APD30 (average raw data) (2Hz, 24-FOLD free ETPC (4.1µM)): 129
- APD30 percentage change compared to vehicle control (2Hz, 24-FOLD free ETPC (4.1µM)): -4%
- APD50 (average raw data) (2Hz, 24-FOLD free ETPC (4.1µM)): 169
- APD50 percentage change compared to vehicle control (2Hz, 24-FOLD free ETPC (4.1µM)): -7%
- APD90 (average raw data) (2Hz, 24-FOLD free ETPC (4.1µM)): 269
- APD90 percentage change compared to vehicle control (2Hz, 24-FOLD free ETPC (4.1µM)): 3%
- Alternans (average raw data) (2Hz, 24-FOLD free ETPC (4.1µM)): 30.91
- Alternans percentage change compared to vehicle control (2Hz, 24-FOLD free ETPC (4.1µM)): 2347%
- EADs percentage change compared to vehicle control (2Hz, 24-FOLD free ETPC (4.1µM)): 0%
- ERP (average raw data) (2Hz, 24-FOLD free ETPC (4.1µM)): 0.37
- ERP percentage change compared to vehicle control (2Hz, 24-FOLD free ETPC (4.1µM)): -13%
- Max Dispersion (average raw data) (2Hz, 24-FOLD free ETPC (4.1µM)): 59.90
- Max Dispersion percentage change compared to vehicle control (2Hz, 24-FOLD free ETPC (4.1µM)): 741%
- RMP (average raw data) (2Hz, 24-FOLD free ETPC (4.1µM)): -88
- RMP percentage change compared to vehicle control (2Hz, 24-FOLD free ETPC (4.1µM)): 0%
- Refractoriness Escape percentage change compared to vehicle control (2Hz, 24-FOLD free ETPC (4.1µM)): 0%
- STV (average raw data) (2Hz, 24-FOLD free ETPC (4.1µM)): 21.80
- STV percentage change compared to vehicle control (2Hz, 24-FOLD free ETPC (4.1µM)): 2766%
- Triangulation (average raw data) (2Hz, 24-FOLD free ETPC (4.1µM)): 139
- Triangulation percentage change compared to vehicle control (2Hz, 24-FOLD free ETPC (4.1µM)): 11%
- Beat Escape (raw data) (2Hz, 24-FOLD free ETPC (4.1µM)): 4
- EADs (raw data) (2Hz, 24-FOLD free ETPC (4.1µM)): 0
- Refractoriness Escape (raw data) (2Hz, 24-FOLD free ETPC (4.1µM)): 0
- AMAX (average raw data) (2Hz, 73-FOLD free ETPC (4.1µM)): 43
- AMAX percentage change compared to vehicle control (2Hz, 73-FOLD free ETPC (4.1µM)): -60%
- APD30 (average raw data) (2Hz, 73-FOLD free ETPC (4.1µM)): 82
- APD30 percentage change compared to vehicle control (2Hz, 73-FOLD free ETPC (4.1µM)): -30%
- APD50 (average raw data) (2Hz, 73-FOLD free ETPC (4.1µM)): 118
- APD50 percentage change compared to vehicle control (2Hz, 73-FOLD free ETPC (4.1µM)): -30%
- APD90 (average raw data) (2Hz, 73-FOLD free ETPC (4.1µM)): 234
- APD90 percentage change compared to vehicle control (2Hz, 73-FOLD free ETPC (4.1µM)): -3%
- Alternans (average raw data) (2Hz, 73-FOLD free ETPC (4.1µM)): 21.46
- Alternans percentage change compared to vehicle control (2Hz, 73-FOLD free ETPC (4.1µM)): 1598%
- EADs percentage change compared to vehicle control (2Hz, 73-FOLD free ETPC (4.1µM)): 0%
- ERP (average raw data) (2Hz, 73-FOLD free ETPC (4.1µM)): 0.45
- ERP percentage change compared to vehicle control (2Hz, 73-FOLD free ETPC (4.1µM)): 5%
- Max Dispersion (average raw data) (2Hz, 73-FOLD free ETPC (4.1µM)): 35.75
- Max Dispersion percentage change compared to vehicle control (2Hz, 73-FOLD free ETPC (4.1µM)): 402%
- RMP (average raw data) (2Hz, 73-FOLD free ETPC (4.1µM)): -68
- RMP percentage change compared to vehicle control (2Hz, 73-FOLD free ETPC (4.1µM)): -19%
- Refractoriness Escape percentage change compared to vehicle control (2Hz, 73-FOLD free ETPC (4.1µM)): 0%
- STV (average raw data) (2Hz, 73-FOLD free ETPC (4.1µM)): 15.46
- Triangulation (average raw data) (2Hz, 73-FOLD free ETPC (4.1µM)): 152
- Triangulation percentage change compared to vehicle control (2Hz, 73-FOLD free ETPC (4.1µM)): 25%
- Beat Escape (raw data) (2Hz, 73-FOLD free ETPC (4.1µM)): 2
- EADs (raw data) (2Hz, 73-FOLD free ETPC (4.1µM)): 0
- Refractoriness Escape (raw data) (2Hz, 73-FOLD free ETPC (4.1µM)): 0
